From patent US12653776B2, “Methods of treatment of cancer by continuous infusion of coenzyme Q10” (priority 2013, dated 2026)

Key:
[1] = tested on: acute myeloid leukemia (KG1) cells; test: Acute myeloid leukemia (KG1) mouse model, survival; type: in vivo, mice
Description: (§1) Human acute erythro-leukemia (K562) and acute myeloid leukemia (KG1) cells (1×10^6) were injected intraperitoneally in immune-compromised mice. Engraftment was confirmed by complete blood counts, presence of anemia, and clinical assessment of animal behavior.
(§2) The mice (total n=120 for each model respectively) were randomized into four (n=30/group) treatment groups. Each treatment regimen was administered in a four week cycle with three weeks of treatment, one week off: • 1. Untreated (control) • 2. Coenzyme Q10 (4%, administered at 75 mg/kg, once/day by continuous infusion) • 3. Chemotherapy (cytarabine/AraC 25 mg/kg, 5×/week; and adriamycin/daunorubicin 5 mg/kg; 1×/wk) • 4. Coenzyme Q10 (4%, administered at 75 mg/kg, once/day by continuous infusion)+chemotherapy (cytarabine/AraC 25 mg/kg, 5×/week; and adriamycin/daunorubicin 5 mg/kg; 1×/wk)
(§3) All dosings were intravenous and followed a protocol of 3 week treatment followed by 1 week rest. Leukemia was monitored by pallor and blood smears, and hone marrow smears were performed post-mortem for analysis using Wright's stain. Survival results from the study of mice with acute erythroleukemia are show in FIG. 5. Day 1 is the first day of treatment with coenzyme Q10 and/or chemotherapy.

[2] = tested on: acute erythro-leukemia (K562) cells; test: Acute erythroleukemia (K562) mouse model, survival; type: in vivo, mice
Description: as §1, §2, §3

[3] = First-in-human Phase 1 study (CTL0510), 4-hour IV infusion 3 times weekly: safety
Description: The first-in-human Phase 1 study with coenzyme Q10 nanosuspension (40 mg/ml) was conducted in 50 patients with advanced solid tumors. The objectives were to assess the safety, maximum tolerated dose, PK and PD of coenzyme Q10, specifically a 4% coenzyme Q10 nanosuspension formulation (as described in WO 2011/112900, the entire contents of which are expressly incorporated herein by reference), administered as a 4-hour IV infusion 3 times weekly in 28-day cycles. Nine dose levels were explored ranting from 5.62 to 139 mg/kg. Plasma concentration profiles and PK parameters were determined from blood samples collected pre-dose and at intervals to 48 hours post-dose.

solid tumors = test: Phase 1 study, 144-hour (6 day) continuous infusion; type: in vivo, human; details: monotherapy and combination therapy
Description: A phase 1 clinical trial evaluating a 144-hour (6 day) continuous infusion of coenzyme Q10 for treatment of solid tumors is earned out. Coenzyme Q10 is administered as a monotherapy (Arm 1) or in combination with chemotherapy (Arm 2). […] The study is an open label, non-randomized dose-escalation study. The estimated enrollment is 45 patients for monotherapy (Arm 1), and up to 120 patients for combination therapy (Arm 2).
A dosing schedule of two 72-hour doses is used. For the first 72-hour dose, a loading dose over 1 hour is followed by infusion of the remainder of the dose over 71 hours at a lower rate. […]
A phase 1 clinical trial for treatment of solid tumors using coenzyme Q10 monotherapy and coenzyme Q10 in combination with chemotherapy is carried out. […] Dose limiting toxicities are assessed during Cycle 1.
Assessments of the antitumor activity of coenzyme Q10 are performed at the end of Cycle 2 and every 2 cycles thereafter using standard techniques such as computerized tomography (CT) or magnetic resonance imaging (MRI) for patients with measurable disease. Response is evaluated using Response Evaluation Criteria in Solid Tumors (RECIST) v1.1. […] Once a dose level of coenzyme Q10 monotherapy is evaluated and the CRC determines it safe to escalate to the next dose level, Cohort 1 of Treatment Arm 2 of coenzyme Q10 in combination with chemotherapy opens to accrual. […]

[4] = tested on: H522 human lung cancer cells; test: H522 human lung cancer rat model, survival; type: in vivo, rats
Description: The effect of coenzyme Q10 dosing regimens was further investigated in rats implanted with H522 human lung cancer cells. Rats were randomized to receive either no treatment (control), continuous infusion with coenzyme Q10, chemotherapy, or a combination of coenzyme Q10 and chemotherapy. The dose of coenzyme Q10 was 50 mg/kg per day over 24 hours and the concentration was 4%. The chemotherapy was repeated on a three week cycle as follows: week 1: I.V. Cyclophosphamide, 35 mg/kg, 1×/wk and I.V. Doxorubicin 2.5 mg/kg, 3×/wk; Weeks 2-3: no treatment.

[5] = coenzyme Q10 75 mg/kg/day continuous infusion + chemotherapy (cytarabine + daunorubicin) vs other groups incl. chemotherapy alone, p<0.00001

coenzyme Q10
survival [1, 5]: significant increase in survival
survival ([1]; coenzyme Q10 alone (4%, 75 mg/kg once/day by continuous infusion) vs chemotherapy (cytarabine + daunorubicin)): improved survival compared to chemotherapy
survival [2, 5]: significant increase in survival
survival ([2]; coenzyme Q10 alone (4%, 75 mg/kg once/day by continuous infusion) vs chemotherapy alone): relatively similar survival compared to chemotherapy alone
serious adverse events (bleeding) resulting in the patient's death due to hemothorax ([3]; 104.3 mg/kg dose level): One
AST increased, laboratory AE ([3]; in vivo): 8%
CTCAE grade of the majority of adverse events ([3]; in vivo): grade 1 or 2
PTT prolonged, laboratory AE ([3]; in vivo): 80%
SAEs reported as possibly related to coenzyme Q10 ([3]; in vivo): Two
alkaline phosphatase increased, laboratory AE ([3]; in vivo): 2%
arthritis, AE related to coenzyme Q10 ([3]; in vivo): 4%
chills, AE related to coenzyme Q10 ([3]; in vivo): 6%
dose limiting toxicities (DLTs) ([3]; in vivo): no dose limiting toxicities (DLTs) were identified
fatigue, AE related to coenzyme Q10 ([3]; in vivo): 24%
fever, AE related to coenzyme Q10 ([3]; in vivo): 8%
headache, AE related to coenzyme Q10 ([3]; in vivo): 10%
increased INR considered related to coenzyme Q10 ([3]; in vivo): 68%
nausea, AE related to coenzyme Q10 ([3]; in vivo): 8%
patients who died due to disease progression or intercurrent illness during the study ([3]; in vivo): Twenty
patients who discontinued treatment due to AEs reported as unrelated to treatment ([3]; in vivo): Four
patients who experienced abnormal INR values ([3]; in vivo): 38 patients
patients with clinically significant increased INR ([3]; in vivo): 14 patients
platelet count decreased, laboratory AE ([3]; in vivo): 14%
vital signs or physical examination findings ([3]; in vivo): No clinically significant changes
clinical and/or radiographic responses (solid tumors; at least some patients): Clinical and/or radiographic responses are seen
safety and tolerability (solid tumors; six day continuous infusion): safe and well tolerated
animal survival ([4]; continuous infusion 50 mg/kg per day combined with chemotherapy (cyclophosphamide + doxorubicin)): more effective than either treatment alone
animal survival ([4]; continuous infusion alone, 50 mg/kg per day over 24 hours, 4%, vs cyclophosphamide + doxorubicin): more effective than chemotherapy alone
